In patent US20250339399A1, “SUPRAMOLECULAR SELF-ASSEMBLY SYSTEM” (Beijing Creatron Institute of Pharmaceutical Research Co., …, priority 2022, published 2025):
Structures can show the parent of a compound that is named as a salt. Where two headings read alike, the source gives them in different places.

Columns and labels:
[1] = human use, cited from earlier work
[2] = Binary supramolecular self-assembly systems of polymer and target: guest concentration over incubation time (Comparative Example 2); type: physicochemical; details: for Concentration of guest molecule in solution / Times that of the initial medium: 6 h
Protocol: Experiments were conducted according to the steps in Comparative Example 1, and quantitative analysis was carried out using the analytical method for each target to investigate the regulation ability […] stacking.

[3] = Binary (carrier), ternary and quaternary supramolecular self-assembly systems of polymer, carrier building block and target: guest concentration over incubation time (Examples 1-56); type: physicochemical; details: 6 h
How it was run: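 Targets were incubated at 37 °C in pH 2.0–7.4 buffers with 0.5% polymer alone or with carrier building blocks, after 0.5 h sonication for ternary systems, and shaken at 200 rpm. Samples at 0.5–6 h were centrifuged and diluted ≥10-fold, and dissolved target was quantified by HPLC; surfactant was added if needed.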

[4] = cited from earlier work
[5] = cited from earlier work; remark: listed apart in the source
[6] = Guest molecule concentration after incubation in initial medium without polymer (Comparative Example 1); type: physicochemical; details: 37° C., 0.05% SDS in pH 6.8 phosphate buffer
How it was run: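 Dissolved guest content measured by HPLC of centrifuged supernatants (37° C., 13000 rpm, 5 min) sampled at 0.5 h, 3 h and 6 h. Incubation was polymer-free at 37° C.±0.5° C. in buffers of pH 2.0-7.4; nominal loading was set by maximum clinical dose.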

[7] = quaternary: 0.05% 314 + 0.25% 201
[8] = quaternary: 0.05% 314 + 0.25% 202
[9] = quaternary: 0.05% 314 + 0.25% 203
[10] = quaternary: 0.05% 314 + 0.25% 204
[11] = quaternary: 0.05% 314 + 0.25% 205

## C=C1C[C@@]23CC[C@H]4[C@@](C)(CCC[C@@]4(C)C(=O)O[C@@H]4O[C@H](CO)[C@@H](O)[C@H](O[C@@H]5O[C@H](CO)[C@@H](O)[C@H](O)[C@H]5O)[C@H]4O[C@@H]4O[C@H](CO)[C@@H](O)[C@H](O)[C@H]4O)[C@@H]2CC[C@]1(O[C@@H]1O[C@H](CO)[C@@H](O)[C@H](O[C@@H]2O[C@H](CO)[C@@H](O)[C@H](O)[C@H]2O)[C@H]1OC1O[C@H](CO)[C@@H](O)[C@H](O)[C@H]1O)C3 (stereo partly shown) [compound 321, Rebaudioside M]
[1]; bw: body weight
  Acceptable daily intake (ADI): 4 mg/kg bw/day

## C[C@H](CC[C@@H](O[C@@H]1O[C@H](CO[C@@H]2O[C@H](CO)[C@@H](O)[C@H](O)[C@H]2O)[C@@H](O)[C@H](O)[C@H]1O[C@@H]1O[C@H](CO)[C@@H](O)[C@H](O)[C@H]1O)C(C)(C)O)[C@H]1CC[C@@]2(C)[C@@H]3CC=C4[C@@H](CC[C@H](O[C@@H]5O[C@H](CO[C@@H]6O[C@H](CO)[C@@H](O)[C@H](O)[C@H]6O)[C@@H](O)[C@H](O)[C@H]5O)C4(C)C)[C@]3(C)[C@H](O)C[C@]12C [compound 319, Mogroside V]
[1]; bw: body weight
  Acceptable daily intake (ADI): 0-2.5 mg/kg bw/day

## COc1ccc([C@@H]2CC(=O)c3c(O)cc(O[C@@H]4O[C@H](CO)[C@@H](O)[C@H](O)[C@H]4O[C@@H]4O[C@@H](C)[C@H](O)[C@@H](O)[C@H]4O)cc3O2)cc1O [compound 318, Neohesperidin]
[1]; bw: body weight
  Acceptable daily intake (ADI): 5 mg/kg bw/day

## Neohesperidin dihydrochalcone [compound 310]
[1]; bw: body weight
  Acceptable daily intake (ADI): 3-5 mg/kg bw/day

## C=C1C[C@@]23CC[C@H]4[C@@](C)(CCC[C@@]4(C)C(=O)O)[C@@H]2CC[C@]1(O[C@@H]1O[C@H](CO)[C@@H](O)[C@H](O[C@@H]2O[C@H](CO)[C@@H](O)[C@H](O)[C@H]2O)[C@H]1O[C@@H]1O[C@H](CO)[C@@H](O)[C@H](O)[C@H]1O)C3 [compound 307, Rebaudioside B]
[1]; bw: body weight
  Acceptable daily intake (ADI): 6 mg/kg bw/day

## C=C(C)[C@@H]1CCC(C)=C[C@H]1c1c(O)cc(CCCCC)cc1O [Cannabidiol]
[2]; binary system with 0.5% polymer 101, incubation 0.5 h
  Concentration of the target in the solution measured after different incubation time: 282.6 µg/mL
[2]; binary system with 0.5% polymer 101, incubation 3 h
  Concentration of the target in the solution measured after different incubation time: 293.7 µg/mL
[2]; binary system with 0.5% polymer 101, incubation 6 h
  Concentration of the target in the solution measured after different incubation time: 342.5 µg/mL
[2]; binary system with 0.5% polymer 102, incubation 0.5 h
  Concentration of the target in the solution measured after different incubation time: 307.3 µg/mL
[2]; binary system with 0.5% polymer 102, incubation 3 h
  Concentration of the target in the solution measured after different incubation time: 323.6 µg/mL
[2]; binary system with 0.5% polymer 102, incubation 6 h
  Concentration of the target in the solution measured after different incubation time: 333.1 µg/mL
[2]; binary system with 0.5% polymer 103, incubation 0.5 h
  Concentration of the target in the solution measured after different incubation time: 54.8 µg/mL
[2]; binary system with 0.5% polymer 103, incubation 3 h
  Concentration of the target in the solution measured after different incubation time: 55.1 µg/mL
[2]; binary system with 0.5% polymer 103, incubation 6 h
  Concentration of the target in the solution measured after different incubation time: 55.7 µg/mL
[2]; binary system with 0.5% polymer 106, incubation 0.5 h
  Concentration of the target in the solution measured after different incubation time: 148.1 µg/mL
[2]; binary system with 0.5% polymer 106, incubation 3 h
  Concentration of the target in the solution measured after different incubation time: 149.4 µg/mL
[2]; binary system with 0.5% polymer 106, incubation 6 h
  Concentration of the target in the solution measured after different incubation time: 155.7 µg/mL
[2]; binary system with 0.5% polymer 107, incubation 0.5 h
  Concentration of the target in the solution measured after different incubation time: 109.6 µg/mL
[2]; binary system with 0.5% polymer 107, incubation 3 h
  Concentration of the target in the solution measured after different incubation time: 97.2 µg/mL
[2]; binary system with 0.5% polymer 107, incubation 6 h
  Concentration of the target in the solution measured after different incubation time: 95.7 µg/mL
[2]; binary system with 0.5% polymer 110, incubation 0.5 h
  Concentration of the target in the solution measured after different incubation time: 168.9 µg/mL
[2]; binary system with 0.5% polymer 110, incubation 3 h
  Concentration of the target in the solution measured after different incubation time: 8.6 µg/mL
[2]; binary system with 0.5% polymer 110, incubation 6 h
  Concentration of the target in the solution measured after different incubation time: 7.3 µg/mL
[2]; binary: 0.25% 101
  Concentration of guest molecule in solution: 342.5 µg/mL
  Times that of the initial medium: 40 times
[2]; binary: 0.25% 103E3
  Concentration of guest molecule in solution: 55.7 µg/mL
[2]; binary: 0.25% 106 (K30)
  Concentration of guest molecule in solution: 155.7 µg/mL
  Times that of the initial medium: 18 times
[3]; [7]
  Concentration of guest molecule in solution: 732.2 µg/mL
  Times that of the initial medium: 86 times
[3]; [8]
  Concentration of guest molecule in solution: 399.4 µg/mL
  Times that of the initial medium: 47 times
[3]; [9]
  Concentration of guest molecule in solution: 648.3 µg/mL
  Times that of the initial medium: 76 times
[3]; [10]
  Concentration of guest molecule in solution: 725.0 µg/mL
  Times that of the initial medium: 85 times
[3]; [11]
  Concentration of guest molecule in solution: 581.7 µg/mL
  Times that of the initial medium: 68 times
[3]; ternary: 102M + 0.1% 310
  Concentration of guest molecule in solution: 580.1 µg/mL
[3]; ternary: 102M + 0.25% 310
  Concentration of guest molecule in solution: 481.2 µg/mL
[4]; 200 mM methyl-beta-cyclodextrin, literature
  Concentration in the system: 25500 µg/mL
[4]; International Journal of Pharmaceutics 589 (2020) 119812
  Best result reported by the literature (concentration): 150 µg/mL
[4]; about 5-10 mM methyl-beta-cyclodextrin, literature curve
  Concentration in the system: lower than 1 mg/mL
[5]
  LogD7.4 or Log P: 6.32
[6]; 0.5 h
  Concentration of guest molecule measured after different incubated time: 11.4 µg/mL
[6]; 3 h
  Concentration of guest molecule measured after different incubated time: 11.8 µg/mL
[6]; 6 h
  Concentration of guest molecule measured after different incubated time: 8.5 µg/mL

## C=C1C[C@@]23CC[C@H]4[C@@](C)(CCC[C@@]4(C)C(=O)O[C@@H]4O[C@H](CO)[C@@H](O)[C@H](O)[C@H]4O)[C@@H]2CC[C@]1(O[C@@H]1O[C@H](CO)[C@@H](O)[C@H](O[C@@H]2O[C@H](CO)[C@@H](O)[C@H](O)[C@H]2O)[C@H]1O[C@@H]1O[C@@H](C)[C@H](O)[C@@H](O)[C@H]1O)C3 [compound 308, Rebaudioside C]
[1]; bw: body weight
  Acceptable daily intake (ADI): 6 mg/kg bw/day

## Myricitrin [compound 306]
[1]; bw: body weight
  Acceptable daily intake (ADI): 14 mg/kg bw/day

## O=C(OC[C@H]1O[C@@H](OC(=O)c2cc(O)c(O)c(OC(=O)c3cc(O)c(O)c(O)c3)c2)[C@H](OC(=O)c2cc(O)c(O)c(OC(=O)c3cc(O)c(O)c(O)c3)c2)[C@@H](OC(=O)c2cc(O)c(O)c(OC(=O)c3cc(O)c(O)c(O)c3)c2)[C@@H]1OC(=O)c1cc(O)c(O)c(OC(=O)c2cc(O)c(O)c(O)c2)c1)c1cc(O)c(O)c(OC(=O)c2cc(O)c(O)c(O)c2)c1 [compound 316, Tannic acid]
[1]; bw: body weight
  Acceptable daily intake (ADI): 15 mg/kg bw/day

## C[C@@H]1O[C@@H](O[C@H]2[C@H](Oc3cc(O)c(C(=O)CCc4ccc(O)cc4)c(O)c3)O[C@H](CO)[C@@H](O)[C@@H]2O)[C@H](O)[C@H](O)[C@H]1O [compound 312, Naringin dihydrochalcone]
[1]
  Acceptable daily intake (ADI): 41 mg/person/ day mg/person/day

## CC1(C)[C@@H](O[C@H]2O[C@H](C(=O)O)[C@@H](O)[C@H](O)[C@H]2O[C@@H]2O[C@H](C(=O)O)[C@@H](O)[C@H](O)[C@H]2O)CC[C@]2(C)[C@H]3C(=O)C=C4[C@@H]5C[C@@](C)(C(=O)O)CC[C@]5(C)CC[C@@]4(C)[C@]3(C)CC[C@@H]12 [compound 314, Glycyrrhizic acid and its ammonium salt]
[1]; bw: body weight
  Acceptable daily intake (ADI): 2 mg/kg bw/day

## C=C1C[C@@]23CC[C@H]4[C@@](C)(CCC[C@@]4(C)C(=O)O[C@@H]4O[C@H](CO)[C@@H](O)[C@H](O)[C@H]4O[C@@H]4O[C@H](CO)[C@@H](O)[C@H](O)[C@H]4O)[C@@H]2CC[C@]1(O[C@@H]1O[C@H](CO)[C@@H](O)[C@H](O[C@@H]2O[C@H](CO)[C@@H](O)[C@H](O)[C@H]2O)[C@H]1OC1O[C@H](CO)[C@@H](O)[C@H](O)[C@H]1O)C3 (stereo partly shown) [compound 320, Rebaudioside D]
[1]; bw: body weight
  Acceptable daily intake (ADI): 3-5 mg/kg bw/day

## C=C1C[C@@]23CC[C@H]4[C@@](C)(CCC[C@@]4(C)C(=O)O[C@@H]4O[C@H](CO)[C@@H](O)[C@H](O)[C@H]4O)[C@@H]2CC[C@]1(O[C@@H]1O[C@H](CO)[C@@H](O)[C@H](O)[C@H]1O[C@@H]1O[C@H](CO)[C@@H](O)[C@H](O)[C@H]1O)C3 [compound 315, Stevioside]
[1]; bw: body weight
  Acceptable daily intake (ADI): 4 mg/kg bw/day

## O=C(O[C@@H]1Cc2c(O)cc(O)cc2O[C@@H]1c1cc(O)c(O)c(O)c1)c1cc(O)c(O)c(O)c1 [compound 303, (−)−Epigallocatechin 3-gallate]
[1]
  Acceptable daily intake (ADI): 135-270 mg/person/ day mg/person/day
